Data: US20250025443A1, “COMPOUNDS AND METHODS FOR TREATING CORONA VIRUSES” (CLEAR CREEK BIO, INC., priority 2021, published 2025)
pIC50: −log10 of the molar value.

Molecular target: SARS-CoV-2 Papain-Like Protease (PLpro) (Severe acute respiratory syndrome coronavirus 2 (2019-nCoV) (SARS-CoV-2), UniProt P0DTD1)
Test: biochemical
Conditions: PLpro 6.25 nM, substrate 25 μM, 60 min at 25° C.; for more potent compounds PLpro 1 nM, 120 min; read-out: PLpro IC50

Compound | pIC50
Cc1ccc(NC2CNC2)cc1C(=O)NC(C)c1cccc2c1OCCO2 (stereo not shown) [Compound 168, 5-(Azetidin-3-ylamino)-N-(1-(2,3-dihydrobenzo[b][1,4]dioxin-5-yl)ethyl)-2-methylbenzamide] | < 5.30
Cc1ccc(NC2CNC2)cc1C(=O)NC(C)c1cccc2c1CCCC2 (stereo not shown) [Compound 172, 5-(Azetidin-3-ylamino)-2-methyl-N-(1-(5,6,7,8-tetrahydronaphthalen-1-yl)ethyl)benzamide] | < 5.30

Same assay, conditions: PLpro enzymatic fluorescence assay; class symbols; read-out: PLpro IC50

Compound | pIC50
Cc1ccc(NC2CN(C(=O)OC(C)(C)C)C2)cc1C(=O)NC(C)c1cccc2c1CCCC2 (stereo not shown) [Compound 181] | < 5.30
Cc1ccc(NC2CN(C(=O)OC(C)(C)C)C2)cc1C(=O)NC1(c2cccc(-c3ccccc3)c2)CC1 [Compound 188, tert-Butyl 3-((3-((1-([1,1′-biphenyl]-3-yl)cyclopropyl)carbamoyl)-4-methylphenyl)amino)azetidine-1-carboxylate] | < 5.30

Same assay, conditions: SARS-CoV-2 PLpro enzymatic fluorescence assay; read-out: PLpro IC50

Compound | pIC50
Cc1ccc(OCCNC(=O)OC(C)(C)C)cc1C(=O)N[C@H](C)c1cccc2ccccc12 [Compound 158, (R)-tert-Butyl(2-(4-methyl-3-((1-(naphthalen-1-yl)ethyl)carbamoyl)phenoxy)ethyl)carbamate] | 5.30 to 6.00
Cc1ccc(OCCN(C)C)cc1C(=O)N[C@H](C)c1cccc2ccccc12 [Compound 160, (R)-5-(2-(Dimethylamino)ethoxy)-2-methyl-N-(1-(naphthalen-1-yl)ethyl)benzamide] | 6.00 to 7.00
CCS(=O)(=O)N1CCC([C@@H](C)NC(=O)c2cc(NC3CN(C(=O)OC(C)(C)C)C3)ccc2C)CC1 [Compound 161, tert-Butyl (R)-3-((3-((1-(1-(ethylsulfonyl)piperidin-4-yl)ethyl)carbamoyl)-4-methylphenyl)amino)azetidine-1-carboxylate] | < 5.30
Cc1ccc(OC2CCNCC2)cc1C(=O)N[C@H](C)c1cccc2ccccc12 [Compound 162, (R)-2-Methyl-N-(1-(naphthalen-1-yl)ethyl)-5-(piperidin-4-yloxy)benzamide] | 6.00 to 7.00
Cc1ccc(N)cc1NC(=O)C(C)c1cccc2ccccc12 (stereo not shown) [Compound 163, N-(5-Amino-2-methylphenyl)-2-(naphthalen-1-yl)propanamide] | < 5.30
Cc1ccc(OC2CCN(C(=O)OC(C)(C)C)CC2)cc1C(=O)N[C@H](C)c1cccc2ccccc12 [Compound 164, (R)-tert-Butyl 4-(4-methyl-3-((1-(naphthalen-1-yl)ethyl)carbamoyl)phenoxy)piperidine-1-carboxylate] | 5.30 to 6.00
CC(=O)N(c1ccc(C)c(C(=O)N[C@H](C)c2cccc3ccccc23)c1)C(CN)CO (stereo partly drawn) [Compound 165, 5-(N-(1-Amino-3-hydroxypropan-2-yl)acetamido)-2-methyl-N-((R)-1-(naphthalen-1-yl)ethyl)benzamide] | < 5.30
CCS(=O)(=O)N1CCC([C@@H](C)NC(=O)c2cc(NC3CNC3)ccc2C)CC1 [Compound 166, (R)-5-(Azetidin-3-ylamino)-N-(1-(1-(ethylsulfonyl)piperidin-4-yl)ethyl)-2-methylbenzamide] | < 5.30
Cc1cc2ccc(=O)[nH]c2cc1C(=O)N[C@H](C)c1cccc2ccccc12 [Compound 167, (R)-6-Methyl-N-(1-(naphthalen-1-yl)ethyl)-2-oxo-1,2-dihydroquinoline-7-carboxamide] | < 5.30
Cc1ccc(NC2CNC2)cc1C(=O)NC1(c2cccc(-c3cccs3)c2)CC1 [Compound 169, 5-(Azetidin-3-ylamino)-2-methyl-N-(1-(3-(thiophen-2-yl)phenyl)cyclopropyl)benzamide] | 6.00 to 7.00
Cc1cc2cc(CN)[nH]c2cc1C(=O)NC1(c2cccc3ccccc23)CC1 [Compound 170, 2-(Aminomethyl)-5-methyl-N-(1-(naphthalen-1-yl)cyclopropyl)-1H-indole-6-carboxamide] | > 7.00
Cc1ccc(OC2CNC2)cc1C(=O)NC1(c2cccc3ccccc23)CC1 [Compound 171, 5-(Azetidin-3-yloxy)-2-methyl-N-(1-(naphthalen-1-yl)cyclopropyl)benzamide] | 6.00 to 7.00
Cc1cc2cc(CN(C)C)[nH]c2cc1C(=O)NC1(c2cccc3ccccc23)CC1 [Compound 173, 2-((Dimethylamino)methyl)-5-methyl-N-(1-(naphthalen-1-yl)cyclopropyl)-1H-indole-6-carboxamide] | 6.00 to 7.00
Cc1cc2cn[nH]c2cc1C(=O)NC1(c2cccc3ccccc23)CC1 [Compound 176, 5-Methyl-N-(1-(naphthalen-1-yl)cyclopropyl)-1H-indazole-6-carboxamide] | 6.00 to 7.00
Cc1ccc(NC2CNC2)cc1C(=O)NC1(c2cccc3ccccc23)CC1 [Compound 177, 5-(Azetidin-3-ylamino)-2-methyl-N-(1-(naphthalen-1-yl)cyclopropyl)benzamide] | 6.00 to 7.00
c1ccc2c(C3(NCc4ccc5[nH]ncc5c4)CC3)cccc2c1 [Compound 178, N-((1H-indazol-5-yl)methyl)-1-(naphthalen-1-yl)cyclopropan-1-amine] | < 5.30
Cc1cc2cc(CNC(=O)OC(C)(C)C)[nH]c2cc1C(=O)NC1(c2cccc3ccccc23)CC1 [Compound 180, tert-Butyl((5-methyl-6-((1-(naphthalen-1-yl)cyclopropyl)carbamoyl)-1H-indol-2-yl)methyl)carbamate] | 6.00 to 7.00
Cc1ccc(N)cc1C(=O)NC(c1cccc2ccccc12)C(F)(F)F (stereo not shown) [Compound 183, 5-Amino-2-methyl-N-(2,2,2-trifluoro-1-(naphthalen-1-yl)ethyl)benzamide] | 5.30 to 6.00

Compound | pIC50
CN(Cc1ccc2[nH]ncc2c1)C1(c2cccc3ccccc23)CC1 [Compound 184, N-((1H-Indazol-5-yl)methyl)-N-methyl-1-(naphthalen-1-yl)cyclopropane amine] | < 5.30
Cc1ccc(N)cc1C(=O)NC(c1cccc2ccccc12)C(F)F (stereo not shown) [Compound 185, 5-Amino-N-(2,2-difluoro-1-(naphthalen-1-yl)ethyl)-2-methylbenzamide] | 5.30 to 6.00
Cc1ccc(NC2CNC2)cc1C(=O)NC1(c2cccc(-c3ccc(CN4CCCC4)s3)c2)CC1 [Compound 186, 5-(Azetidin-3-ylamino)-2-methyl-N-(1-(3-(5-(pyrrolidin-1-ylmethyl)thiophen-2-yl)phenyl)cyclopropyl)benzamide] | 6.00 to 7.00
Cc1ccc(NC2CNC2)cc1C(=O)NC1(c2cccc(-c3ccccc3)c2)CC1 [Compound 187, N-(1-([1,1′-Biphenyl]-3-yl)cyclopropyl)-5-(azetidin-3-ylamino)-2-methylbenzamide] | 5.30 to 6.00
Cc1cc2cc(CNC(=O)OC(C)(C)C)[nH]c2cc1C(=O)N[C@H](C)c1cccc2ccccc12 [Compound 189, (R)-tert-Butyl((5-methyl-6-((1-(naphthalen-1-yl)ethyl)carbamoyl)-1H-indol-2-yl)methyl)carbamate] | < 5.30
Cc1cc2c(cc1C(=O)NC1(c3cccc4ccccc34)CC1)NC(CN)C2 (stereo not shown) [Compound 190, 2-(Aminomethyl)-5-methyl-N-(1-(naphthalen-1-yl)cyclopropyl)indoline-6-carboxamide] | > 7.00
Cc1ccc(N)cc1C(=O)NC1(c2cccc3ccccc23)COC1 [Compound 191, 5-Amino-2-methyl-N-(3-(naphthalen-1-yl)oxetan-3-yl)benzamide] | 6.00 to 7.00
Cc1cc2cc(CN(C)C)n(CO)c2cc1C(=O)N[C@H](C)c1cccc2ccccc12 [Compound 192, (R)-2-((Dimethylamino)methyl)-1-(hydroxymethyl)-5-methyl-N-(1-(naphthalen-1-yl)ethyl)-1H-indole-6-carboxamide] | 6.00 to 7.00
Cc1cc2c(cc1C(=O)NC1(c3cccc4ccccc34)CC1)N1C(=O)NCC1C2 (stereo not shown) [Compound 194, 7-Methyl-N-(1-(naphthalen-1-yl)cyclopropyl)-3-oxo-2,3,9,9a-tetrahydro-1H-imidazo[1,5-a]indole-6-carboxamide] | 5.30 to 6.00
Cc1ccc(N)cc1C(=O)NC(C#N)c1cccc2ccccc12 (stereo not shown) [Compound 195, 5-Amino-N-(cyano(naphthalen-1-yl)methyl)-2-methylbenzamide] | < 5.30
Cc1ccc(NC2CNC2)cc1C(=O)NC1(c2cccc(-c3ccc(CN[C@H]4CC[C@@H](O)C4)s3)c2)CC1 [Compound 196, 5-(Azetidin-3-ylamino)-N-(1-(3-(5-((((1S,3R)-3-hydroxycyclopentyl)amino)methyl)thiophen-2-yl)phenyl)cyclopropyl)-2-methylbenzamide] | 6.00 to 7.00
Cc1cc2cc(CN)oc2cc1C(=O)NC1(c2cccc3ccccc23)CC1 [Compound 197, 2-(Aminomethyl)-5-methyl-N-(1-(naphthalen-1-yl)cyclopropyl)benzofuran-6-carboxamide] | > 7.00
Cc1cc2cc(CN(C)C)oc2cc1C(=O)NC1(c2cccc3ccccc23)CC1 [Compound 198, 2-((Dimethylamino)methyl)-5-methyl-N-(1-(naphthalen-1-yl)cyclopropyl)benzofuran-6-carboxamide] | 6.00 to 7.00
Cc1cc2cc[nH]c2cc1C(=O)NC1(c2cccc3ccccc23)CC1 [Compound 199, 5-Methyl-N-(1-(naphthalen-1-yl)cyclopropyl)-1H-indole-6-carboxamide] | 6.00 to 7.00
Cc1ccc(N)cc1C(=O)NC(CF)c1cccc2ccccc12 (stereo not shown) [Compound 200, 5-Amino-N-(2-fluoro-1-(naphthalen-1-yl)ethyl)-2-methylbenzamide] | 5.30 to 6.00
Cc1cc2ccn(C)c2cc1C(=O)NC1(c2cccc3ccccc23)CC1 [Compound 201, 1,5-Dimethyl-N-(1-(naphthalen-1-yl)cyclopropyl)-1H-indole-6-carboxamide] | 6.00 to 7.00
Cc1cc2cc(CCN)[nH]c2cc1C(=O)NC1(c2cccc3ccccc23)CC1 [Compound 202, 2-(2-Aminoethyl)-5-methyl-N-(1-(naphthalen-1-yl)cyclopropyl)-1H-indole-6-carboxamide] | 6.00 to 7.00
Cc1cc2ccn(CCN)c2cc1C(=O)NC1(c2cccc3ccccc23)CC1 [Compound 203, 1-(2-Aminoethyl)-5-methyl-N-(1-(naphthalen-1-yl)cyclopropyl)-1H-indole-6-carboxamide] | 6.00 to 7.00
